Positions of bridges follow the written chain, without caps; N, C: chain ends. Non-standard residues stand in square brackets, D forms with d. No end group written: not given here. R8 = C=CCCCCCC[C@@](C)(N)C(=O)O; Cit = NC(=O)NCCC[C@H](N)C(=O)O; S5 = C=CCCC[C@](C)(N)C(=O)O
target: T1, ABCA1 (Mus musculus, UniProt P41233); assay: ABCA1-dependent cholesterol efflux from [3H]cholesterol-labeled J774 macrophages with and without cAMP; assay type: cell-based; conditions: J774, cAMP vs no cAMP; 10 μg/ml lipid-free
T1 construct: treated (18 h) with a cAMP analog to induce ABCA1 protein expression; endogenous in cells; host or cells: J774 macrophages
T1 sequence (P41233 whole entry): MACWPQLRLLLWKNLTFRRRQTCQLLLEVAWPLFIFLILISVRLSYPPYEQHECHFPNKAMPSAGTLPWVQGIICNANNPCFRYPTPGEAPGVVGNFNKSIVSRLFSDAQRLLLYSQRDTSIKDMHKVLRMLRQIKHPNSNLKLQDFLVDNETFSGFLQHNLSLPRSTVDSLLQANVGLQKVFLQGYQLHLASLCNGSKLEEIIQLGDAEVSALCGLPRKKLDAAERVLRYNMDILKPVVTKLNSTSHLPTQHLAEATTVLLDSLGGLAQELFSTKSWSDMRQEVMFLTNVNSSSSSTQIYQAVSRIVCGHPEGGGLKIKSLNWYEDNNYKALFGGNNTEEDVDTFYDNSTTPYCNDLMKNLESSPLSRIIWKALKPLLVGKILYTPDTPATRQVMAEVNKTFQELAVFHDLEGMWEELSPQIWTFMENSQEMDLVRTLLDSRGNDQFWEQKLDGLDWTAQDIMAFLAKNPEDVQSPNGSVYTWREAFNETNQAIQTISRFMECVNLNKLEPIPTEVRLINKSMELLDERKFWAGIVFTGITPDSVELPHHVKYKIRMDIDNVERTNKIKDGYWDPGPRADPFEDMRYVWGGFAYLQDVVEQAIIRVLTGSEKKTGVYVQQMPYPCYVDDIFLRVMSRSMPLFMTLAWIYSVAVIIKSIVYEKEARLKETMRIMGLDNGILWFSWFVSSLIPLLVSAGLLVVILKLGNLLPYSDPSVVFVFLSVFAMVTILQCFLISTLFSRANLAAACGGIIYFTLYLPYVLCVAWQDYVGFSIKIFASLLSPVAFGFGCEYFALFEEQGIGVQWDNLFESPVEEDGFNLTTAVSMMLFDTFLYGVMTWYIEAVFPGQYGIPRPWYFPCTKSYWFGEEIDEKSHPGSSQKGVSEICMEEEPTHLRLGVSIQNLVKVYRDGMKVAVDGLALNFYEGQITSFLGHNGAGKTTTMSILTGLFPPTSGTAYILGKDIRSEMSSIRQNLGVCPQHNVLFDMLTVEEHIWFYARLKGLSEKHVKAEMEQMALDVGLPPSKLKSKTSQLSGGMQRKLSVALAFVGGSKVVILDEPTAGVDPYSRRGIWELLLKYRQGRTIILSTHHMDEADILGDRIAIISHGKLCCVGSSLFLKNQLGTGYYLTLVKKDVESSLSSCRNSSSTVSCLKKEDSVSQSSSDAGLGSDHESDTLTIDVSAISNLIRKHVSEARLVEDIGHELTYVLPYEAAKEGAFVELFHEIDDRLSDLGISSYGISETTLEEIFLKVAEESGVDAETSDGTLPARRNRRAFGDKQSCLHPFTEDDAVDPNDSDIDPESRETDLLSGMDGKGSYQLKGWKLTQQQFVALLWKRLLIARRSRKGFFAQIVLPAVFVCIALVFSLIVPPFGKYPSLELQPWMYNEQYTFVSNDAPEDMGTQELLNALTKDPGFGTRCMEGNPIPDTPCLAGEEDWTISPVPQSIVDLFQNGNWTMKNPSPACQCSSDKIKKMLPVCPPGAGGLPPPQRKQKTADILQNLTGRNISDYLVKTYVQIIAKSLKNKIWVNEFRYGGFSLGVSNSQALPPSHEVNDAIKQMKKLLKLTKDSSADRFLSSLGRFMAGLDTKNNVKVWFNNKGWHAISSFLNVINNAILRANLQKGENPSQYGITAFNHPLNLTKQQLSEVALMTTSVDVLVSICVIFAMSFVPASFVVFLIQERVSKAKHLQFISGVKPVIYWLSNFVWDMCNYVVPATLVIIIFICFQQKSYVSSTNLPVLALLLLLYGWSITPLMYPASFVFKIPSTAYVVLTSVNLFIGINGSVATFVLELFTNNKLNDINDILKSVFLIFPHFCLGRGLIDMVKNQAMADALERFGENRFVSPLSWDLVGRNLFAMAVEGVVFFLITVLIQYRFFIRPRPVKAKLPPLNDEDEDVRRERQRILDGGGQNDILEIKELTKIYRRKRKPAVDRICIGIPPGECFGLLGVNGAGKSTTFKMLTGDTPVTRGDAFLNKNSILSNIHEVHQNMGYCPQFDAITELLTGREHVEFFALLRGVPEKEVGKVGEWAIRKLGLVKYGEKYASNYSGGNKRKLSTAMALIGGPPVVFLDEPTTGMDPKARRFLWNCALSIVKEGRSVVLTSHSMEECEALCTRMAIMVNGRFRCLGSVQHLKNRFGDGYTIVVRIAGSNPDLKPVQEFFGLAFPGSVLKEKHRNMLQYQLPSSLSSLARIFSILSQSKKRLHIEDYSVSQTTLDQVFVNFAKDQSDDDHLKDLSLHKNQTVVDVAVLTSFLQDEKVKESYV

Compound	ABCA1-dependent cholesterol efflux activity
CS6256A: ATI-5261 with glutamine at positions 3 and 23 and a chemical staple (EVQSKLEEWFAAF[S5]EFAEEF[R8]AQLKS; staple 14-21)	highly dependent on ABCA1 comparable to ATI-5261
CS6257: ATI-5261 with uncharged alanine at positions 3 and 23 and a chemical staple (EVASKLEEWFAAF[S5]EFAEEF[R8]AALKS; staple 14-21)	highly dependent on ABCA1 comparable to ATI-5261
CS6259: leucine form of ATI-5261 with glutamine at positions 3 and 23 and a chemical staple (EVQSKLEEWLAAL[R8]ELAEEL[S5]AQLKS; staple 14-21)	highly dependent on ABCA1 comparable to ATI-5261
T7983-11: Y26 analog of T6991-2 (S26→Y for 125I labeling) (EV[Cit]SKLEEWIAAI[Cit]EIAEEILARLKY) [Peptide T7983-11]	functional, mediating high-levels of cholesterol efflux in an ABCA1-dependent manner

test system: C57Bl/6 mice; assay: not given; assay type: in vivo; conditions: 300 mg/kg IP, male chow-fed C57Bl/6 mice, 4 and 6 h
Procedure: The high-dose cytotoxic response of ATI-5261 observed in rat, rabbit and cynomolgus monkey is additionally recapitulated in mice (FIG. 4). Male chow-fed C57bl/6 mice were injected intraperitonelly (IP) with 30 or 300 mg/kg of lipid-fee ATI-5261. Blood was collected via the retro-orbital plexus 4 h after peptide injection and plasma subsequently obtained for measurement of CPK (Panel A) and ALT and AST activities (Panel B, ALT left bars, AST, right bars). Values are means±SD, n=4 mice per group.
This example illustrates that aromatic phenylalanine residues associated with the non-polar surface of ATI-5261 contributed to the majority of the peptide toxicity (FIG. 5). […] Blood was collected via retro-orbital plexus 4 h after injection for isolation of plasma. Levels of plasma CPK (Panel A), ALT (panel B) and AST (Panel C) were determined as described in FIG. 1. Values are means±SD, n=4 mice per group.
The concentrations of plasma lipids in C57Bl/6 mice following administration of the aliphatic analogs of ATI-5261 was also determined. […] All values (mg/dl) are means±SD, n=4, determined at 4 and 6 h post treatment with peptide.

Compound	TG elevating effect (plasma TG, cholesterol)
EARSKAEEWLAALRELAEELLARAKS [Peptide T5505-12]	produced low toxicity and greatly ablated TG elevating effects
EVRSKLEEWLAALRELAEELAARLKS [Peptide T4883-7]	further reduced cytotoxic response and TG elevating effects
EVRSKLEEWLAALRELAEELLARAKS [Peptide T4883-6]	further reduced cytotoxic response and TG elevating effects
EVRSKLEEWLAALRELAEELLARLKS [Peptide T5055-13]	greatly attenuated
T5505-9: ATI-5261 analog with L24A; W9L substitutions (EVRSKLEELLAALRELAEELLARAKS; synthetic amphipathic alpha-helix cholesterol efflux peptide T5505-9, LeuATI-5261 analog)	markedly reduced the increase in plasma CPK and AST as well as TG elevating activity

same assay, conditions: 300 mg/kg IP, male chow-fed C57Bl/6 mice, 4 h

Compound	cytotoxic/toxic response (plasma CPK, ALT, AST)	muscle toxicity (plasma CPK activity)	plasma ALT / AST
EARSKAEEWLAALLELAEELLARAKS [Peptide T5211-2]	displayed little or no toxic responses and low TG in plasma	–	–
EARSKAEEWLAALRELAEELLARAKS [Peptide T5505-12]	produced low toxicity and greatly ablated TG elevating effects	–	–
EVNSKLEEWLAALNELAEELLARLKS [Peptide T5766-4]	–	greatly reduced the increase in CPK and TG elevating effects	–
EVQSKLEEWLAALQELAEELLARLKS [Peptide T5766-3]	–	greatly reduced the increase in CPK and TG elevating effects	–
EVRSKLEEWFAAFREFAEEFLARL [Peptide T5766-5]	appeared to reduce the toxic responses	greatly reduced muscle toxicity	–
EVRSKLEEWFAAFREFAEEFLARLNS [Peptide T5594-4]	–	greatly reduced muscle toxicity	–
EVRSKLEEWIAAIREIAEEILARLKS [Peptide T6991-1]	–	displayed little or no cytotoxic properties related to CPK elevations	–
EVRSKLEEWLAALRELAEELAARLKS [Peptide T4883-7]	further reduced cytotoxic response and TG elevating effects	sufficient to eliminate the residual muscle toxicity	–
EVRSKLEEWLAALRELAEELLARAKS [Peptide T4883-6]	further reduced cytotoxic response and TG elevating effects	sufficient to eliminate the residual muscle toxicity	–
EVRSKLEEWLAALRELAEELLARLKS [Peptide T5055-13]	–	residual toxicity	–
EVRSKLQEWFAAFREFAQEFLARLKS [Peptide T5554-1]	produced a large increase in the toxic response	–	–
T5505-9: ATI-5261 analog with L24A; W9L substitutions (EVRSKLEELLAALRELAEELLARAKS; synthetic amphipathic alpha-helix cholesterol efflux peptide T5505-9, LeuATI-5261 analog)	–	markedly reduced the increase in plasma CPK and AST as well as TG elevating activity	markedly reduced the increase in plasma CPK and AST as well as TG elevating activity
T5554-4: E→Q analog bearing citrulline substitutions (EV[Cit]SKLQEWFAAFREFAEEFLARLKS) [Peptide T5554-4]	retained strong toxic (CPK, ALT, and AST) and TG elevating responses	–	–
T5554-5: E→Q analog bearing citrulline substitutions, net charge −1 (EV[Cit]SKLQEWFAAF[Cit]EFAQEFLARLKS) [Peptide T5554-5]	retained strong toxic (CPK, ALT, and AST) and TG elevating responses	–	–
T5594-5: ATI-5261 analog with all lysine residues (R>K substitutions) (EVKSKLEEWFAAFKEFAEEFLAKLKS; synthetic amphipathic alpha-helix cholesterol efflux peptide T5594-5, ATI-5261 analog)	displayed cytotoxic and TG elevating activity	–	–

target: T1, ABCA1; assay: ABCA1-dependent cholesterol efflux from [3H]cholesterol-labeled J774 macrophages with and without cAMP; assay type: cell-based; conditions: cAMP treated J774, dose response, 4 h
Source text: Suitable cholesterol efflux assays are described in, e.g., Bielicki, J. K and Oda, M. N., Biochemistry, 41:2089-2096 (2002); Jia et al., Biochem. Biophys. Res. Common., 297:206-213 (2002). In some embodiments, a polypeptide known to mediate cholesterol efflux (e.g., helix 9/10 of Apo A-I) is used to screen for additional mediators of cholesterol efflux in a cell based assay. For example, cell lines in which cholesterol efflux can be enhanced using a cAMP analog that up-regulates ABCA1 protein expression (e.g., J774 macrophages) can conveniently be used to assess the ability of a polypeptide of the present invention to mediate cholesterol efflux. The cells are incubated with labeled cholesterol (e.g., [^3H]cholesterol) under conditions appropriate for cholesterol uptake by the cells. Thus, cAMP or cAMP analogs (e.g., CPT-cAMP) are incubated with the cells for a suitable time before the initiation of cellular cholesterol efflux, i.e., prior to contacting the cells with a test polypeptide. Measurement of labeled cholesterol appearing in the medium is used to determine the cholesterol efflux mediating activity of the test polypeptide.
Aliphatic analogs of ATI-5261 lacking phenylalanine residues retained potent ABCA1 selective cholesterol efflux activity (FIG. 7). J774 macrophages were labeled (48 h) with [^3H]cholesterol and treated (18 h) with a cAMP analog to induce ABCA1 protein expression; cells incubated in the absence of cAMP (left bars) served as controls. […] Peptides were used at a concentration of 30 μg/ml, which was maximal for promoting cholesterol efflux activity. Panel B—Dependence of cholesterol efflux on the concentration of peptides. […] Results are expressed as the difference in cholesterol efflux (%/4 h) observed using cAMP treated vs. non-treated J774 cells. Values are means±SD, n=3.

peptide concentration at saturation of cholesterol efflux	Compound	Km for cholesterol efflux
3 µg/mL	T6275-5: citrulline form of LeuATI-5261 with single citrulline14→L substitution (EV[Cit]SKLEEWLAALLELAEELLARLKS) [Peptide T6275-5]	–
3 µg/mL	T7983-11: Y26 analog of T6991-2 (S26→Y for 125I labeling) (EV[Cit]SKLEEWIAAI[Cit]EIAEEILARLKY) [Peptide T7983-11]	–

Compound	peptide concentration at saturation of cholesterol efflux	Km for cholesterol efflux
T5505-9: ATI-5261 analog with L24A; W9L substitutions (EVRSKLEELLAALRELAEELLARAKS; synthetic amphipathic alpha-helix cholesterol efflux peptide T5505-9, LeuATI-5261 analog)	~3 µg/mL	0.58 µg/mL

test system: not given; assay: not given; conditions: scaled values = (raw log(P) + 2.061)/4.484; cited from earlier work

Compound	Hydrophobicity
C[C@H](N)C(=O)O [Alanine]	0.616
N=C(N)NCCC[C@H](N)C(=O)O [Arginine]	0.000
NC(=O)C[C@H](N)C(=O)O [Asparagine]	0.236
N[C@@H](CCC(=O)O)C(=O)O [Glutamate]	0.043
NCC(=O)O [Glycine]	0.501
N[C@@H](Cc1c[nH]cn1)C(=O)O [Histidine]	0.165
CC[C@H](C)[C@H](N)C(=O)O [Isoleucine]	0.943
NCCCC[C@H](N)C(=O)O [Lysine]	0.283
CSCC[C@H](N)C(=O)O [Methionine]	0.738
N[C@@H](Cc1ccccc1)C(=O)O [Phenylalanine]	1.00
O=C(O)[C@@H]1CCCN1 [Proline]	0.711
C[C@@H](O)[C@H](N)C(=O)O [Threonine]	0.450
N[C@@H](Cc1c[nH]c2ccccc12)C(=O)O [Tryptophan]	0.878
N[C@@H](Cc1ccc(O)cc1)C(=O)O [Tyrosine]	0.880
CC(C)[C@H](N)C(=O)O [Valine]	0.825

Source: patent publication US11434267B2, “Peptides having reduced toxicity that stimulate cholesterol efflux” (The Regents of the University of California, priority 2013, dated 2022)
